Experimental data reported in patent US20210047290A1, “SPIRO COMPOUND AS INDOLEAMINE-2,3-DIOXYGENASE INHIBITOR” (SHANGHAI INSTITUTE OF ORGANIC CHEMISTRY, CHINESE ACADEMY OF …, priority 2018, published 2021).

Experiments:
IDO enzyme = target: T1, IDO enzyme (Homo sapiens, UniProt P14902); test: IDO enzyme inhibitory activity test; assay type: biochemical; conditions: recombinant IDO, D-Trp substrate, reading at 321 nm for 40 min
T1 construct: made in house; host or cells: E. coli BL21 (pET28a-IDO plasmid)
Protocol: (1) Induced Expression and Purification Method of IDO Protein
Firstly, DO gene was amplified with PCR, and the amplified PCR product was recycled. Digestion (2 h under 37° C.), gel running and recycling were carried out on the pET28a plasmid (purchased from Shanghai Baomanbio Co., Ltd.) and IDO gel with two restriction enzymes (EcoR I and Xho I). T4 ligase was connected with the product overnight, added into DH5α competence, placed on the ice for 30 min and subjected to thermal shock at 42° C. for 90 s.
BL21 which contained pET28a-IDO plasmid was shaken vigorously at 37° C. till OD600 was 0.6-0.8, added into hemin (final concentration: 40 μM) and 0.5 mM IPTG (isopropyl-3-D-IPTG) and induced under 16° C. for 20 h; after induction, thallus were collected centrifugally at 4° C. and 6,000 rpm, washed with 50 mM PBS (pH 7.5) and collected again centrifugally.
The collected thallus were suspended again with buffer solution (50 mM PBS pH 7.5). An appropriate amount of 100×PMSF was added. The thallus were disrupted with cell disruption instrument (1,400 bar) at 4° C. for three times. The split bacteria were centrifuged at 18,000×g for 45 min. The sediment was removed but supernatant was retained and filtered with a 0.45 μm film at 4° C.; the nickel column was balanced with lysis buffer (50 mM PBS pH7.5) by 3 column volumes.
The supernatant was loaded on the nickel column and washed with wash solution (50 mM PBS pH7.5, 50 mM imidazole) by 4 column volume. Finally, protein was eluted with eluant (50 mM PBS pH7.5, 250 mM imidazole); dialyzed for 6 h with dialysis solution (50 mM PBS pH7.5), concentrated, sub-packaged, quickly frozen with liquid nitrogen and stored at −80° C. for backup.
(2) Test Method for IDO Enzyme Inhibitory Activity
Firstly, the compound was diluted by triple gradient. 1 μL of each concentration was added into a 96-well plate; 50 μL of IDO Enzyme solution PBS (pH 7.5; final concentration: 50 mM) was added: 25 μL of substrate 1 (methylene blue, final concentration: […]; catalase, final concentration: 0.2 μg/L; PBS (pH 7.5; final concentration: 50 mM) mixture and 25 μL of substrate 2 (D-Trp, final concentration: 1.5 mM; sodium ascorbate, final concentration: 20 mM; PBS (pH 7.5), final concentration 50 mM) mixture were added for starting the reaction. Finally, OOD321 nm reading was carried out for 40 min.

IDO in Hela cells = target: T2, IDO in Hela cells (Homo sapiens, UniProt P14902); test: Test of cellular activity (kynurenine formation in interferon γ stimulated Hela cells); assay type: cell-based; conditions: head prints IPS cells, method: Hela cells, 48 h incubation, read at 480 nm
T2 construct: endogenous in cells; host or cells: HeLa cells stimulated with human interferon γ
Protocol: (3) Test Method of Cellular Activity
Hela cells (80 μL) was inoculated on a 96-well plate (5×10^3 for each well) to grow overnight. After the compound was diluted the next day, 1 μL of diluent and 100 μL of culture medium which contains human interferon γ (final concentration: 50 ng/m) were added into the 96-well plate to make the final volume reach […]. After incubating for 48 h, 80 μL of supernate was transferred from each well to a new […]. 10 μL 6.1N trichloroacetic acid was added into each well for mixing and incubation at 50° C. for 30 min, and […] N formyl-kynurenin into kynurenine. The reaction mixture was centrifuged at 2,500 rpm for 10 min, 70 μL of supernatant of each well was transferred to a new 96-well plate and mixed with 100 μL of 2% (w/v) dimethylaminobenzaldehyde acetic acid solution. After placing for 5-10 min, measurement was carried out at 480 nm with the SPECTRAmax i13 reader.

T2 sequence (P14902 whole entry): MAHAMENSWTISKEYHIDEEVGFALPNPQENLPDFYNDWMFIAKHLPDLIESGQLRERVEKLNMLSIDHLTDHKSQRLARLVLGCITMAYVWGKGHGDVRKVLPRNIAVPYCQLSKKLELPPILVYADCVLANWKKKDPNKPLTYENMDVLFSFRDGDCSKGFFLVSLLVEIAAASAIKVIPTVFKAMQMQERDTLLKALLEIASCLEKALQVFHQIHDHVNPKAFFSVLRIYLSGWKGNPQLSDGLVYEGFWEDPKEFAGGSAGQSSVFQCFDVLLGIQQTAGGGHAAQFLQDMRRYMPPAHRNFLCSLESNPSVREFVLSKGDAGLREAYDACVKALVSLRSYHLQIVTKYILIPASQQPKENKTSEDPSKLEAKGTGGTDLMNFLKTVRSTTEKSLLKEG
T1 sequence (P14902 whole entry): as above

| IC50 (IDO enzyme) [nM] | IC50 (IDO in Hela cells) [nM] | Compound |
| --- | --- | --- |
| 1300 | > 50 | O=C(Nc1ccc(Cl)cc1)C1CC12CCC(c1ccnc3ccccc13)CC2 (racemic) [Example 2A, (±)-(cis/trans)-N-(4-chlorophenyl)-6-(quinolin-4-yl)spiro[2.5]octane-1-carboxamide] |
| 630 | > 3 | O=C(Nc1ccc(Cl)cc1)C1CC2(C1)CC(c1ccnc3ccc(F)cc13)C2 (racemic) [Example 3, (±) N-(4-chlorophenyl)-6-(6-fluoroquinolin-4-yl)spiro[3.3]heptane-2-carboxamide] |
| 160 | 22 | O=C(Nc1ccc(Cl)cc1)C1CC12CCC(c1ccnc3ccc(F)cc13)CC2 (racemic) [Example 4, (±)-(cis/trans)-N-(4-chlorophenyl)-6-(6-fluoroquinolin-4-yl)spiro[2.5]octane-1-carboxamide] |
| 330 | > 3 | O=C(Nc1ccc(F)cc1)C1CC12CCC(c1ccnc3ccc(F)cc13)CC2 (racemic) [Example 5, (±)-(cis/trans)-N-(4-fluorophenyl)-6-(6-fluoroquinolin-4-yl)spiro[2.5]octane-1-carboxamide] |
| 470 | > 4 | O=C(Nc1ccc(C(F)(F)F)cc1)C1CC12CCC(c1ccnc3ccc(F)cc13)CC2 (racemic) [Example 6, (±)-(cis/trans)-6-(6-fluoroquinolin-4-yl)-N-(4-trifluoromethyl)phenyl)spiro[2.5]octane-1-carboxamide] |
| 990 | > 30 | O=C(NC1CC12CCC(c1ccnc3ccc(F)cc13)CC2)c1ccc(Cl)cc1 (racemic) [Example 8, (±)-(cis/trans)-4-chloro-N-(6-(6-fluoroquinolin-4-yl)spiro[2.5]octan-1-yl)benzamide] |
| 2700 | – | O=C(Nc1ccc(Cl)cc1)NC1CCC12CCC(c1ccnc3ccc(F)cc13)CC2 (racemic) [Example 11B, (±) 1-(4-chlorophenyl)-3-(7-(6-fluoroquinolin-4-yl)spiro[3.5]nonan-1-yl)urea] |
| 7000 | – | O=C(Nc1cccc(Br)c1)C1CCC12CCC(c1ccnc3ccc(F)cc13)CC2 (racemic) [Example 14B, (±)-N-(3-bromophenyl)-7-(6-fluoroquinolin-4-yl)spiro[3.5]nonane-1-carboxamide] |
| 400 | 3.36 | O=C(Nc1ccc(F)cc1)C1CC2(CCC(c3ccnc4ccc(F)cc34)CC2)C1 (racemic) [Example 19, (±) N-(4-fluorophenyl)-7-(6-fluoroquinolin-4-yl)spiro[3.5]nonane-2-carboxamide] |
| 4160 | – | O=C(Nc1ccc(Cl)cc1)C1CCC2(CC1)CC(c1ccnc3ccc(F)cc13)C2 (single isomer, unassigned) [Example 22A, N-(4-chlorophenyl)-2-(6-fluoroquinoline-4-yl)spiro[3.5]nonane-7-carboxamide] |
| 3440 | – | O=C(Nc1ccc(Cl)cc1)C1CCC2(CC1)CC(c1ccnc3ccc(F)cc13)C2 (single isomer, unassigned) [Example 22B, N-(4-chlorophenyl)-2-(6-fluoroquinoline-4-yl)spiro[3.5]nonane-7-carboxamide] |

Continued, compound first:

| Compound | IC50 (IDO enzyme) [nM] | IC50 (IDO in Hela cells) [nM] |
| --- | --- | --- |
| O=C(Nc1ccc(Cl)cc1)C1CC2(C1)CC(c1ccnc3ccccc13)C2 (racemic) [Example 1, (±)-N-(4-chlorophenyl)-6-(quinolin-4-yl)spiro[3.3]heptane-2-carboxamide] | 1100 | > 50 |
| O=C(Nc1ccc(Cl)cc1)C1CC12CCC(c1ccnc3ccccc13)CC2 (racemic) [Example 2B, (±)-(cis/trans)-N-(4-chlorophenyl)-6-(quinolin-4-yl)spiro[2.5]octane-1-carboxamide] | 500 | – |
| O=C(Nc1ccccc1)C1CC12CCC(c1ccnc3ccc(F)cc13)CC2 (racemic) [Example 7, (±)-(cis/trans)-6-(6-fluoroquinolin-4-yl)-N-phenylspiro[2.5]octane-1-carboxamide] | 990 | – |
| O=C(Nc1ccc(Cl)cc1)NC1CC12CCC(c1ccnc3ccc(F)cc13)CC2 (racemic) [Example 9, (±)-(cis/trans)-1-(4-chlorophenyl)-3-(6-(6-fluoroquinolin-4-yl)spiro[2.5]octan-1-yl)urea] | 3000 | – |
| O=C(Nc1ccc(Cl)cc1)NC1CCC12CCC(c1ccnc3ccc(F)cc13)CC2 (racemic) [Example 11A, (±) 1-(4-chlorophenyl)-3-(7-(6-fluoroquinolin-4-yl)spiro[3.5]nonan-1-yl)urea] | 6900 | – |
| O=C(NC1CCC12CCC(c1ccnc3ccc(F)cc13)CC2)c1ccc(Cl)cc1 (racemic) [Example 12A, (±) 4-chloro-N-(7-(6-fluoroquinolin-4-yl)spiro[35]nonan-1-yl)benzamide] | 1200 | – |
| O=C(NC1CCC12CCC(c1ccnc3ccc(F)cc13)CC2)c1ccc(Cl)cc1 (racemic) [Example 12B, (±) 4-chloro-N-(7-(6-fluoroquinolin-4-yl)spiro[3.5]nonan-1-yl)benzamide] | 1180 | > 30 |
| O=C(Nc1cccc(Br)c1)C1CCC12CCC(c1ccnc3ccc(F)cc13)CC2 (racemic) [Example 14A, (±)-N-(3-bromophenyl)-7-(6-fluoroquinolin-4-yl)spiro[3.5]nonane-1-carboxamide] | 7600 | – |
| O=C(Nc1ccc(Cl)cc1)NC1CC2(CCC(c3ccnc4ccc(F)cc34)CC2)C1 (racemic) [Example 16, (±) 1-(4-chlorophenyl)-3-(7-(6-fluoroquinolin-4-yl)spiro[3.5]nonan-2-yl)urea] | 3200 | – |
| O=C(NC1CC2(CCC(c3ccnc4ccc(F)cc34)CC2)C1)c1ccc(Cl)cc1 (racemic) [Example 17, (±) 4-chloro-N-(7-(6-fluoroquinolin-yl)spiro[3.5]nonan-2-yl)benzamide] | 480 | – |
| O=C(Nc1ccc(Br)cc1)C1CC2(CCC(c3ccnc4ccc(F)cc34)CC2)C1 (racemic) [Example 18, (±) N-(4-bromophenyl)-7-(6-fluoroquinoline-4-yl)spiro[3.5]nonane-2-carboxamide] | 200 | 2.52 |
| O=C(NC1CC2(CCC(c3ccnc4ccc(F)cc34)CC2)C1)c1ccc(Br)cc1 (racemic) [Example 20, (±) 4-bromo-N-(7-(6-fluoroquinolin-4-yl)spiro[3.5]nonan-2-yl)benzamide] | 2420 | > 10 |
| O=C(NC1CC2(CCC(c3ccnc4ccc(F)cc34)CC2)C1)c1ccc(F)cc1 (racemic) [Example 21, (±) 4-fluoro-N-(7-(6-fluoroquinolin-4-yl)spiro[3.5]nonan-2-yl)benzamide] | 480 | > 10 |
| O=C(Nc1ccc(Cl)cc1)C1CCC12CCC(c1ccnc3ccc(F)cc13)CC2 (single isomer, unassigned) [Example 10B, (±) N-(4-chlorophenyl)-7-(6-fluoroquinolin-4-yl)spiro[3.5]nonane-1-carboxamide] | 2100 | – |
| O=S(=O)(NC1CCC12CCC(c1ccnc3ccc(F)cc13)CC2)c1ccc(Cl)cc1 (single isomer, unassigned) [Example 13A, (±) 4-chloro-N-(7-(6-fluoroquinolin-4-yl)spiro[3.5]nonan-1-yl)benzenesulfonamide] | 20000 | – |
| O=S(=O)(NC1CCC12CCC(c1ccnc3ccc(F)cc13)CC2)c1ccc(Cl)cc1 (single isomer, unassigned) [Example 13B, (±) 4-chloro-N-(7-(6-fluoroquinolin-4-ylspiro[3.5]nonan-1-yl)benzenesulfonamide] | 157000 | – |
